Results reported in patent US8211916B2, “N- and O-substituted 4-[2-(diphenylmethoxy)-ethyl]-1-[(phenyl)methyl]piperidine analogs and methods of treating CNS disorders therewith” (Wayne State University, priority 2000, dated 2012).
Like-named read-outs stand apart in the source and are kept apart here.

Tests used:
[1] = target: T1, dopamine transporter (DAT) (Rattus norvegicus, UniProt P23977); experiment: biochemical
[2] = target: T2, Norepinephrine (NET) Transporter (Rattus norvegicus, UniProt Q63380); experiment: NET binding, [3H]nisoxetine
T2 construct: and norepinephrine Transporters in Rat Striatum; from tissue
T2 sequence (Q63380 1-617): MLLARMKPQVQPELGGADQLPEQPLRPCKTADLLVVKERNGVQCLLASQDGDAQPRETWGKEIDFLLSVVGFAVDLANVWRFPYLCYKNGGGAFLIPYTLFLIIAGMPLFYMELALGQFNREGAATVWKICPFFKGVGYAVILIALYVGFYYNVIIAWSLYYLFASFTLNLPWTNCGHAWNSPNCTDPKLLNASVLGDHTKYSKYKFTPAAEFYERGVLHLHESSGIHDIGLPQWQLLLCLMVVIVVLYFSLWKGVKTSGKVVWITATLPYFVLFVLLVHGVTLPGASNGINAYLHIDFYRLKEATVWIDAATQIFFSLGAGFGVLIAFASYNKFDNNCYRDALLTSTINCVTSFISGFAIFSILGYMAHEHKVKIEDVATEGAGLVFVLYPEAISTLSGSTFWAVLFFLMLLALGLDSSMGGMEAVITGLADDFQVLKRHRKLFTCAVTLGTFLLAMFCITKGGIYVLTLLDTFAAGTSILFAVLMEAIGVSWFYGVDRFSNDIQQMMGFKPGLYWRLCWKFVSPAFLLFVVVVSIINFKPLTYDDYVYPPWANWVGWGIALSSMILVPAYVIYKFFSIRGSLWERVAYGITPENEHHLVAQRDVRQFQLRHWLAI

[3] = target: rat DAT (Rattus norvegicus, UniProt P23977); experiment: Rat DAT binding, [3H]Win 35,428, striatal membranes; conditions: for NET/DAT / SERT/DAT: Table 4, binding selectivity
rat DAT, sequence (P23977 whole entry): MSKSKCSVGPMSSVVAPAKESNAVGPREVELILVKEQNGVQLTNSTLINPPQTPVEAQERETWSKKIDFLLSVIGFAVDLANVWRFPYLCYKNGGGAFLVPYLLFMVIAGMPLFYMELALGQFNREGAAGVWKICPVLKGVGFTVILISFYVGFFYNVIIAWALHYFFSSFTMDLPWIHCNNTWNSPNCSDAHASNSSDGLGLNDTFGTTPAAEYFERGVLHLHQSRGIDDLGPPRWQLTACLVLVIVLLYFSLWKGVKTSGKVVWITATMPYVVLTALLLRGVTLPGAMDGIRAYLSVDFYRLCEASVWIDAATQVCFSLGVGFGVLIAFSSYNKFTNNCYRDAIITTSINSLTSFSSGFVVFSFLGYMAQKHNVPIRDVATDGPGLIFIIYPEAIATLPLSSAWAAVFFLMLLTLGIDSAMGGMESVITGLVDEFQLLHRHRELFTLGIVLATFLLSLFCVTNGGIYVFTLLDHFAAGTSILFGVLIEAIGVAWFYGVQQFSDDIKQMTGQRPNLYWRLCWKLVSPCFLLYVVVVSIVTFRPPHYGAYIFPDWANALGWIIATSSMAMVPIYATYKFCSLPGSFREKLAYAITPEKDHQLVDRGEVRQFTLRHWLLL
Method: (§2) Briefly, rat striatal membranes were incubated with radioligand and inhibitor for 2 h on ice in a sodium phosphate buffer at a final Na^+ concentration of 30 nM, pH 7.4, at room temperature. The assays were terminated by filtration through glass fiber filtermats (Wallac, Inc., Gaithersburg, Md.), presoaked in 0.05% (v/v) polyethyleneimine, with a MACH3-96 Tomtec harvester (Wallac, Inc.). Filters were assayed for radioactivity in a Microbeta Plus liquid scintillation counter (Wallac, Inc.).

[4] = target: T3, rat SERT (Rattus norvegicus, UniProt P31652); experiment: Rat SERT binding, [3H]citalopram, striatal membranes
T3 construct: from tissue; host or cells: rat striatum (membranes)
T3 sequence (P31652 whole entry): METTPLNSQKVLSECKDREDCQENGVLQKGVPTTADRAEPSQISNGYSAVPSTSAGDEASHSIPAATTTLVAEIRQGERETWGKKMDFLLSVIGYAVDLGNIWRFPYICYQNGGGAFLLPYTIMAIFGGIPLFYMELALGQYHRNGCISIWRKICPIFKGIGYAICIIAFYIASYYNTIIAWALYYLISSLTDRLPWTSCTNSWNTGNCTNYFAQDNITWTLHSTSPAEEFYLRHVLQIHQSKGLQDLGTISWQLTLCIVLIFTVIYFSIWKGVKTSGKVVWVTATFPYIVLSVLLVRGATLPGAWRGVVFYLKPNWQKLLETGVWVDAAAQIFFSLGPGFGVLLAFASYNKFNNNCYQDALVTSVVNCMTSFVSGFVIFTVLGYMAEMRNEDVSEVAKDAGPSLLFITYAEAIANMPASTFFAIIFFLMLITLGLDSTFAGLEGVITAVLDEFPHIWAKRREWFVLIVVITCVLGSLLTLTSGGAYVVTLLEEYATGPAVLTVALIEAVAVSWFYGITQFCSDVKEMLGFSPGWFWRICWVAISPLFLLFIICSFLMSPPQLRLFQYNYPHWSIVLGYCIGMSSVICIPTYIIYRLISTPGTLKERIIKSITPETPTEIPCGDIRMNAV
Method: as §2

[5] = target: T1, dopamine transporter (DAT); conditions: for [3H]DA/DAT Binding: Table 4, uptake/binding ratio
[6] = target: T4, DAT (Rattus norvegicus, UniProt P23977); experiment: Uptake of [3H]DA by DAT, rat striatum; assay type: biochemical; conditions: [3H]DA uptake, rat striatum; read-out: Ki (DAT), inhibition of DA uptake
T4 construct: from tissue; host or cells: rat striatum
T4 sequence (P23977 whole entry): as the sequence (P23977 whole entry) above
From the text: (§1) Transporter assays. The affinity of test compounds in binding to rat DAT and in inhibiting monoamine uptake was monitored as described by us previously. […] Rat cerebral cortex was used for assessing uptake of [^3H]serotonin by SERT and hippocampus for uptake of [^3H]NE by NET. […] At lease five triplicate concentrations of each test compound were studied, spaced evenly around the IC50 value. The latter was estimated by nonlinear computer curve-fitting procedures and converted to Ki with the Cheng-Prusoff equation.

[7] = target: T5, NET (Rattus norvegicus, UniProt Q63380); experiment: Uptake of [3H]NE by NET, rat hippocampus; assay type: biochemical; conditions: [3H]NE uptake, read-out: Ki (NET), inhibition of NE uptake
T5 construct: from tissue; host or cells: rat hippocampus
T5 sequence (Q63380 1-617): as the sequence (Q63380 1-617) above
From the text: as §1

[8] = Stability of free base on storage; assay type: physicochemical; conditions: room temperature
Method: To a solution of oxalyl chloride ([…], […]) in CH2Cl2 (3 mL) cooled to −78° C. was added dropwise 108 mg dimethylsulfoxide (1.38 mmol, 3 equiv). The mixture was stirred for 10 min and a solution of 236 mg racemic trans-3-hydroxy-4-[2-(diphenylmethoxy)ethyl]-1-[(4-fluorophenyl)methyl]piperidine (0.46 mmol) in CH2Cl2 (1 mL) was added dropwise. […] […]; H, 5.92; N, 2.76.

[9] = Table 3, read-out: NET, IC50, nM [3H]nisoxetine
[10] = Table 5, rat striatum, read-out: NET, IC50, nM [3H]nisoxetine

T1 sequence (P23977 whole entry): as the sequence (P23977 whole entry) above

| Compound | IC50 [1] [nM] | IC50 [3] [nM] | SERT/DAT selectivity ratio [3] | IC50 [4] [nM] | IC50 ([3]; read-out: DAT, IC50, Table 1) [nM] | IC50 ([4]; Table 1, read-out: SERT, IC50) [nM] | other results |
| --- | --- | --- | --- | --- | --- | --- | --- |
| Fc1ccc(CN[C@H]2CC[C@H](C(c3ccccc3)c3ccccc3)NC2)cc1 (racemic) [(±)-7b, trans-2-diphenylmethyl-5-(4-fluorobenzylamino)piperidine] | 106 ± 10 | 212 ± 20 | 6.28 | 1330 | – | – | IC50 [2, 9]: 4470 nM; NET/DAT [3]: 21; SERT/DAT [3]: 6.28; [3H]DA/DAT Binding [5]: 0.5 |
| Fc1ccc(CN2CCC(CCOC(c3ccccc3)c3ccccc3)CC2)cc1F [Example 2, 4-[2-(Diphenylmethoxy)ethyl]-1-[(3,4-difluorophenyl)methyl]piperidine] | 12 ± 1.62 | – | 122 | – | 10.1 ± 0.9 | 1220 ± 139 | – |
| O[C@@H](CN[C@H]1CC[C@@H](C(c2ccccc2)c2ccccc2)NC1)c1ccc(F)cc1 [Example 4a, (R)-2-[(3S,6S)-6-benzhydrylpiperidin-3-ylamino)-1-(4-fluorophenyl)ethanol] | – | – | – | – | – | – | Ki [6]: 236 nM; Ki [7]: 1440 nM |
| Fc1ccc(CN2CCC(CNOC(c3ccccc3)c3ccccc3)CC2)cc1 [Example 7, 4-[((2-Diphenylmethoxy)amino)methyl]-1-[(4-fluorophenyl)methyl]piperidine] | 16.6 ± 2.8 | – | – | – | 34.4 ± 4.2 | 626 ± 33 | IC50 [2]: 691 ± 68 nM |
| Fc1ccc(CN2CCC(CCNC(c3ccccc3)c3ccccc3)CC2)cc1F [Example 8, 4-[2-((Diphenylmethyl)amino)ethyl]-1-[(3,4-difluorophenyl)methyl]piperidine] | 10.7 ± 1.8 | – | – | – | – | 1590 ± 160 | IC50 ([2]; Table 1, read-out: NET, IC50): 1030 nM |
| OC1CN(Cc2ccc(F)cc2)CCC1CCOC(c1ccccc1)c1ccccc1 (racemic) [Example 16, racemic trans-3-hydroxy-4-[2-diphenylmethoxy)ethyl]-1-[(4-fluorophenyl)methyl]piperidine] | – | 5.96 ± 1.26 | – | 1110 | – | – | IC50 [2, 10]: 637 ± 114 nM |
| c1ccc(CN2CCC(CCNC(c3ccccc3)c3ccccc3)CC2)cc1 [Example 9] | 20.6 ± 2.5 | – | – | – | – | 1560 ± 208 | IC50 ([2]; Table 1, read-out: NET, IC50): 2620 nM |
| O=C1CN(Cc2ccc(F)cc2)CCC1CCOC(c1ccccc1)c1ccccc1 (racemic) [Example 18, racemic 3-Keto-4-[2-(diphenylmethoxy)ethyl]-1-[(4-fluorophenyl)methyl]piperidine] | – | 99 ± 18 | – | 7750 | – | – | IC50 [2, 10]: 6300 nM; stability of the free base [8]: decomposes at room temperature |
| O[C@H](CN[C@H]1CC[C@@H](C(c2ccccc2)c2ccccc2)NC1)c1ccc(F)cc1 [Example 4b, (S)-2-[(3S,6S)-6-benzhydrylpiperidin-3-ylamino)-1-(4-fluorophenyl)ethanol] | – | – | – | – | – | – | Ki [6]: 152 nM; Ki [7]: 306 nM |
| CS(=O)(=O)Nc1ccc(CN2CCC(CCOC(c3ccccc3)c3ccccc3)CC2)cc1 [Example 6, 4-[2-(Diphenylmethoxy)ethyl]-1-[((4-methylsulfonylamino)phenyl)methyl]piperidine] | 9.7 ± 1.2 | – | – | – | 26.6 ± 1.4 | 586 ± 29.2 | – |
| Fc1ccc(CNC2CCC(C(c3ccccc3)c3ccccc3)NC2)cc1 (racemic) [(±)-7a, 2-diphenylmethyl-5-(4-fluorobenzylamino)piperidine] | 28.9 ± 2.5 | 30 ± 0.5 | 93.7 | 2810 | – | – | IC50 [2, 9]: 1350 nM; NET/DAT [3]: 44.9; SERT/DAT [3]: 93.7; [3H]DA/DAT Binding [5]: 0.03 |
| Fc1ccc(CN2CCC(CNCC(c3ccccc3)c3ccccc3)CC2)cc1 [Example 11, 4-[[2-(Diphenyl)ethyl]aminomethyl]-1-[(4-fluorophenyl)methyl]piperidine] | – | – | – | – | 19.7 ± 1.4 | 137 ± 45.6 | IC50 ([2]; Table 1, read-out: NET, IC50): 1110 nM; NET/DAT [3]: 5.6; SERT/DAT [3]: 6.9; affinity for the DAT ([3]; in words): strong affinity; affinity for the SERT ([4]; in words): moderate affinity; [3H]DA/DAT Binding [5]: 2.5; IC50 ([5]; read-out: [3H]DA Inhibition, IC50, Table 2, rat synaptosome tissue): 49.6 ± 7.2 nM |
| N#Cc1ccc(CN2CCC(CCOC(c3ccccc3)c3ccccc3)CC2)cc1 [Example 4, 4-[2-(Diphenylmethoxy)ethyl]-1-[(4-cyanophenyl)methyl]piperidine] | 4.58 ± 0.8 | – | 615 | – | – | – | IC50 ([3]; read-out: IC50 for the dopamine transporter): 3.7 nM; IC50 ([4]; read-out: SERT, IC50): 2280 ± 470 nM |
